Legend:
[1] = target: recombinant BACE1 protein (Homo sapiens, UniProt P56817); assay: Biochemical FRET based assay; settings: recombinant BACE1 1 μg/ml, 120 minutes, room temperature, pH 5.0; read-out: Biochemical FRET based assay pIC50 (converted)
Excerpt: This assay is a Fluorescence Resonance Energy Transfer Assay (FRET) based assay. The substrate for this assay is an APP derived 13 amino acids peptide that contains the ‘Swedish’ Lys-Met/Asn-Leu mutation of the amyloid precursor protein (APP) beta-secretase cleavage site. This substrate also contains two fluorophores: (7-methoxycoumarin-4-yl) acetic acid (Mca) is a fluorescent donor with excitation wavelength at 320 nm and emission at 405 nm and 2,4-Dinitrophenyl (Dnp) is a proprietary quencher acceptor. […] Upon cleavage by BACE1, the fluorophore Mca is separated from the quenching group Dnp, restoring the full fluorescence yield of the donor. The increase in fluorescence is linearly related to the rate of proteolysis.
Briefly in a 384-well format recombinant BACE1 protein in a final concentration of 1 μg/ml is incubated for 120 minutes at room temperature with 10 μm substrate in incubation buffer (40 mM Citrate buffer pH 5.0, 0.04% PEG, 4% DMSO) in the absence or presence of compound. Next the amount of proteolysis is directly measured by fluorescence measurement at T=0 and T=120 (excitation at 320 nm and emission at 405 nm). Results are expressed in RFU (Relative Fluorescence Units), as difference between T120 and T0.
From this an IC50 value (inhibitory concentration causing 50% inhibition of activity) can be obtained.

[2] = tested on: Aβ42 in the soluble fraction of brain homogenates; assay: In vivo efficacy: brain soluble Aβ42 lowering (ELISA); design: species or system mouse; settings: p.o., non-transgenic animals
Excerpt: (§1) To determine whether acute administration of an Aβ42 peptide lowering agent would reduce Aβ peptide levels in vivo, non-transgenic rodents, e.g. mice or rats were used. Animals treated with the Aβ peptide lowering agent were examined and compared to those untreated or treated with vehicle and brain levels of soluble Aβ42 and total Aβ were quantitated by standard techniques, for example, using ELISA. Treatment periods varied from hours (h) to days and were adjusted based on the results of the Aβ42 lowering once a time course of onset of effect could be established.
(§2) A typical protocol for measuring Aβ42 lowering in vivo is shown but it is only one of many variations that could be used to optimize the levels of detectable Aβ. For example, Aβ peptide lowering compounds were formulated in 20% hydroxypropyl β cyclodextrin. The Aβ peptide lowering agents were administered as a single oral dose (p.o.) or a single subcutaneous dose (s.c.) to overnight fasted animals. After a certain time, usually 2 or 4 h (as indicated in Table 7), the animals were sacrificed and A1342 levels were analysed.
(§3) Blood was collected by decapitation and exsanguinations in EDTA-treated collection tubes. […] The left hemisphere was stored at −18° C. for quantitative analysis of test compound levels. […]
(§4) Mouse brains from non-transgenic animals were resuspended in 8 volumes of 0.4% DEA (diethylamine)/50 mM NaCl containing protease inhibitors (Roche-11873580001 or 04693159001) per gram of tissue, e.g. for 0.158 g brain, add 1.264 ml of 0.4% DEA. […] Nine parts of supernatant were neutralized with 1 part 0.5 M Tris-HCl pH 6.8 and used to quantify Aβtotal and Aβ42.
(§5) To quantify the amount of Aβtotal and Aβ42 in the soluble fraction of the brain homogenates, Enzyme-Linked-Immunosorbent-Assays were used. […] Following this incubation and subsequent wash steps the ELISA for Aβ42 quantification was finished by addition of Quanta Blu fluorogenic peroxidase substrate according to the manufacturer's instructions (Pierce Corp., Rockford, Ill.). A reading was performed after 10 to 15 min (excitation 320 nm/emission 420 nm).

[3] = tested on: Abeta total produced and secreted by human neuroblastoma SKNBE2 cells expressing hAPP695; assay: Cellular αLisa assay in SKNBE2 cells, Abeta total; assay type: cell-based; settings: incubated for 18 hours, read-out: Cellular αLisa assay in SKNBE2 cells Abetatotal pIC50 (converted)
Description: (§6) In two αLisa assays the levels of Abeta total and Abeta 1-42 produced and secreted into the medium of human neuroblastoma SKNBE2 cells are quantified. The assay is based on the human neuroblastoma SKNBE2 expressing the wild type Amyloid Precursor Protein (hAPP695). The compounds are diluted and added to these cells, incubated for 18 hours and then measurements of Abeta 1-42 and Abeta total are taken. Abeta total and Abeta 1-42 are measured by sandwich αLisa. αLisa is a sandwich assay using biotinylated antibody AbN/25 attached to streptavidin coated beads and antibody Ab4G8 or cAb42/26 conjugated acceptor beads for the detection of Abeta total and Abeta 1-42 respectively. In the presence of Abeta total or Abeta 1-42, the beads come into close proximity. The excitation of the donor beads provokes the release of singlet oxygen molecules that trigger a cascade of energy transfer in the acceptor beads, resulting in light emission. Light emission is measured after 1 hour incubation (excitation at […] and emission at 615 nm).
(§7) A best-fit curve is fitted by a minimum sum of squares method to the plot of % Controlmin versus compound concentration. From this an IC50 value (inhibitory concentration causing 50% inhibition of activity) can be obtained.

[4] = tested on: Aβtotal in the soluble fraction of brain homogenates; assay: In vivo efficacy: brain soluble Aβtotal lowering (ELISA); design: species or system mouse; settings: p.o., non-transgenic animals
Excerpt: as §1, §2, §3, §4
as §5, with “nm). […]” for “nm).”

[5] = tested on: Abeta 1-42 produced and secreted by human neuroblastoma SKNBE2 cells expressing hAPP695; assay: Cellular αLisa assay in SKNBE2 cells, Abeta 42; assay type: cell-based; settings: incubated for 18 hours, read-out: Cellular αLisa assay in SKNBE2 cells Abeta 42 pIC50 (converted)
Description: as §6, §7

[6] = 10 mpk, 2 h after administration
[7] = 30 mpk, 4 h after administration

Chain of recombinant BACE1 protein (P56817 46-501): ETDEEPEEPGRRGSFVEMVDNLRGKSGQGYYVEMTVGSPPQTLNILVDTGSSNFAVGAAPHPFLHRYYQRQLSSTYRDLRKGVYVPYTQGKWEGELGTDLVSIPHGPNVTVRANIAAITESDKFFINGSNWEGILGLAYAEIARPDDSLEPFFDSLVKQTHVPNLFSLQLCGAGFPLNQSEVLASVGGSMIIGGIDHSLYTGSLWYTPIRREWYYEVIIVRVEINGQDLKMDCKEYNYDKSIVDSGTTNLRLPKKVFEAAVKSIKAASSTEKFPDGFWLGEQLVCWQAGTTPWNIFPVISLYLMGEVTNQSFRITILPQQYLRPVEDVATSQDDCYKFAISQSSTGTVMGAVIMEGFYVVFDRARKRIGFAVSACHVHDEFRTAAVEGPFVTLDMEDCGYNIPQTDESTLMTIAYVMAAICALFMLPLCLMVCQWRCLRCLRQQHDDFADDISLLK

SMILES	IC50 [1]	melting point	IC50 [3]	IC50 [5]	Aβ42 (% Ctrl)_Mean [2, 6]	Aβtotal (% Ctrl)_Mean [4, 6]	Aβ42 (% Ctrl)_Mean [2, 7]	Aβtotal (% Ctrl)_Mean [4, 7]
C[C@]1(c2cc(NC(=O)c3ccc(F)cn3)ccc2F)N=C(N)COC1C(F)F (single isomer, unassigned) [Compound 2, N-{3-[(2R*,3R)-5-Amino-2-(difluoromethyl)-3-methyl-3,6-dihydro-2H-1,4-oxazin-3-yl]-4-fluorophenyl}-5-fluoropyridine-2-carboxamide]	35.5 nM	205.7 °C	8.51 nM	8.51 nM	91 % Ctrl	96 % Ctrl	–	–
CCC1(c2cc(NC(=O)c3cnc(OC)cn3)ccc2F)N=C(N)COC1C(F)F (racemic) [Compound 3, cis-rac-N-{3-[5-Amino-2-(difluoromethyl)-3-ethyl-3,6-dihydro-2H-1,4-oxazin-3-yl]-4-fluorophenyl}-5-methoxypyrazine-2-carboxamide]	63.1 nM	–	3.72 nM	4.17 nM	–	–	–	–
COc1cnc(C(=O)Nc2ccc(F)c([C@@]3(C)N=C(N)COC3C(F)F)c2)cn1 (single isomer, unassigned) [Compound 1, N-{3-[(2R*,3R)-5-Amino-2-(difluoromethyl)-3-methyl-3,6-dihydro-2H-1,4-oxazin-3-yl]-4-fluorophenyl}-5-methoxypyrazine-2-carboxamide]	35.5 nM	–	4.27 nM	4.17 nM	62 % Ctrl	59 % Ctrl	–	–
C[C@]1(c2cc(-c3cncnc3)ccc2F)N=C(N)COC1C(F)F (single isomer, unassigned) [Compound 4, (5R,6R*)-6-(Difluoromethyl)-5-(2-fluoro-5-pyrimidin-5-ylphenyl)-5-methyl-5,6-dihydro-2H-1,4-oxazin-3-amine]	427 nM	–	129 nM	129 nM	–	–	–	–

Second part, led by results:

IC50 [1]	melting point	IC50 [3]	IC50 [5]	SMILES	Aβ42 (% Ctrl)_Mean [2, 6]	Aβtotal (% Ctrl)_Mean [4, 6]	Aβ42 (% Ctrl)_Mean [2, 7]	Aβtotal (% Ctrl)_Mean [4, 7]
53.7 nM	230.9 °C	3.09 nM	3.47 nM	C[C@]1(c2cc(NC(=O)c3ccc(C#N)cn3)ccc2F)N=C(N)COC1C(F)F (single isomer, unassigned) [Compound 7, N-{3-[(2R*,3R)-5-Amino-2-(difluoromethyl)-3-methyl-3,6-dihydro-2H-1,4-oxazin-3-yl]-4-fluorophenyl}-5-cyanopyridine-2-carboxamide]	–	–	53 % Ctrl	55 % Ctrl
457 nM	–	117 nM	117 nM	C[C@]1(c2cccc(-c3cncnc3)c2)N=C(N)COC1C(F)F (single isomer, unassigned) [Compound 5, (5R,6R*)-6-(Difluoromethyl)-5-methyl-5-(3-pyrimidin-5-ylphenyl)-5,6-dihydro-2H-1,4-oxazin-3-amine]	–	–	–	–
–	–	3.39 nM	3.31 nM	CC1(c2cc(NC(=O)c3ccc(Cl)cn3)ccc2F)N=C(N)COC1C(F)F (single isomer, unassigned) [Compound 6, N-{3-[(2R*3R)-5-Amino-2-(difluoromethyl)-3-methyl-3,6-dihydro-2H-1,4-oxazin-3-yl]-4-fluorophenyl}-5-chloropyridine-2-carboxamide]	–	–	–	–
